{"source": "patent EP1379135B1", "about": "“FORMULATIONS COMPRISING ENTRAPPED ACTIVE INGREDIENTS AND USES THEREOF” (THE SCRIPPS RESEARCH INSTITUTE, priority 2001, dated 2002)", "key": {"[1]": {"test_system": "IL-1β induced NO production in normal human articular chondrocytes", "test": "IL-1β induced NO production in cultured chondrocytes (NO2 accumulation, Griess reaction)", "type": "cell-based", "settings": "for inhibitory activity on IL-1β induced NO production: concentration of 10 mM", "method": "Chondrocytes were isolated from the cartilage by collagenase digestion and maintained in continuous monolayer cultures in DMEM containing 10% fetal bovine serum (FBS). Cell viability after chondrocyte isolation by collagenase digestion of normal cartilage was >95%. This level was maintained for at least 96 hrs post mortem. […] Experiments reported were performed with primary or first passage cells.\nChondrocytes were plated at 40,000 cells/well in 96-well plates in the presence of 1 % FBS. After 48 h, the medium was changed, and the cells were stimulated with IL-1β (Sigma) at a concentration of 5 ng/ml for 24 h. NO production was detected as NO2 accumulation in the culture supernatants by the Griess reaction as described elsewhere (Heval et al., (1994) Methods Enzymol. 233:250). IL-6 in the culture supernatants was measured by ELISA (R&D Systems, Minneapolis, MN) in accordance with the supplier's protocol."}, "[2]": {"test_system": "TNFα induced nitric oxide (NO) production in normal human articular chondrocytes", "test": "TNFα induced NO production in chondrocytes", "type": "cell-based"}, "chondrocytes": {"test_system": "chondrocytes", "test": "Cell viability, MTT assay", "type": "cell-based, human", "settings": "up to 20 mM"}, "bradykinin-induced pain": {"test_system": "bradykinin-induced pain", "test": "Bradykinin-induced pain after intra-articular administration (walking behavior pain score)", "type": "in vivo, Wistar rats", "settings": "intra-articular administration in rats; Figure 6", "method": "The purpose of this study was to investigate the analgesic effects of GlcNAc with or without liposomal formulations, injected intra-articularly into the joint of Wistar rats. Pain was induced by intra-articular administration of bradykinin. Adult male Wistar rats with a weight range from 220g to 250g were obtained from Laboratory Animals Centre, National University of Singapore. Bradykinin and GlcNAc were obtained from Sigma. The liposomes were prepared as described above.\n50 µl of GlcNAc solution or an GIcNAc formulated liposome suspension was injected into a rat joint cavity. An equal volume of saline was given intra-articularly as a control. 50 µl of bradykinin (60 µg/ml or at the indicated concentration) was given intra-articularly at different time points following the administration of GlcNAc.\nChanges in walking behavior caused by intra-articular injection of bradykinin were used to define induced pain criteria in rats. The methods used to observe the pain response are defined in Table 2. The degree of pain was assigned a score according to the criteria in Table 3."}}, "note": "Entries after “also recorded” stand apart in the source; their conditions may differ.", "data": [{"compound": "CC(=O)N[C@H]1C(O)O[C@H](CO)[C@H](O)[C@@H]1O", "note": "(stereo partly shown) [N-acetylgalactosamine]", "values": [{"measurement": "inhibitory activity on IL-1β induced NO production", "setting": "[1]", "result": "demonstrated inhibitory activity"}]}, {"compound": "CC(=O)N[C@@H]1C(O)O[C@H](CO)[C@@H](O)[C@@H]1O", "note": "(stereo partly shown) [N-acetylmannosamine]", "values": [{"measurement": "inhibitory activity on IL-1β induced NO production", "setting": "[1]", "result": "did not inhibit"}, {"measurement": "TNFα induced nitric oxide (NO) production", "setting": "[2]", "result": "did not inhibit"}]}, {"compound": "N[C@H]1C(O)O[C@H](CO)[C@@H](O)[C@@H]1O", "note": "(stereo partly shown) [GA, glucosamine]", "values": [{"measurement": "cell viability", "setting": "chondrocytes", "result": "Neither GA nor GlcNAc at dosages up to 20 mM affected cell viability"}, {"measurement": "NO production triggered by IL-1β", "setting": "[1]", "result": "suppressed NO production; also recorded: measurably inhibited NO production in the lower millimolar range"}, {"measurement": "concentrations not effective in inhibiting NO production", "setting": "[1]", "result": "below 1 mM"}, {"measurement": "IC50", "setting": "[1]; Homo sapiens, Chondrocyte, IL-1β 5 ng/ml for 24 h, GlcNAc vs GA p < 0.01, read-out: IC50 (inhibition of NO production)", "result": "14.9 ± 2.1", "unit": "mM"}, {"measurement": "TNFα induced nitric oxide (NO) production", "setting": "[2]", "result": "inhibit"}]}, {"compound": "Bradykinin (RPPGFSPFR; Bradykinin; UniProt P01042 381-389, looked up)", "values": [{"measurement": "pain scores, dose response", "setting": "bradykinin-induced pain", "result": "Higher pain scores correlate with the amount of injected Bradykinin"}]}, {"compound": "CC(=O)N[C@H]1[C@H](O[C@H]2[C@H](O)[C@@H](NC(C)=O)C(O)O[C@@H]2CO)O[C@H](CO)[C@@H](O[C@@H]2O[C@H](CO)[C@@H](O)[C@H](O)[C@H]2NC(C)=O)[C@@H]1O", "note": "(stereo partly shown) [trimers, N,N',N\"-triacetylchitotriose]", "values": [{"measurement": "NO production triggered by IL-1β", "setting": "[1]", "result": "did not express inhibitory activity"}]}, {"compound": "O=C[C@H](O)[C@@H](O)[C@H](O)[C@H](O)C(=O)O", "note": "[glucuronic acid]", "values": [{"measurement": "inhibitory activity on IL-1β induced NO production", "setting": "[1]", "result": "did not inhibit"}, {"measurement": "TNFα induced nitric oxide (NO) production", "setting": "[2]", "result": "did not inhibit"}]}, {"compound": "CC(=O)N[C@H]1[C@H](O[C@H]2[C@H](O)[C@@H](NC(C)=O)C(O)O[C@@H]2CO)O[C@H](CO)[C@@H](O)[C@@H]1O", "note": "(stereo partly shown) [GlcNAc dimers, N,N'-diacetylchitobiose]", "values": [{"measurement": "NO production triggered by IL-1β", "setting": "[1]", "result": "did not express inhibitory activity"}]}]}
